From patent publication US10444229B2, “Method of measuring insulin resistance with fatty acid combustion, and composition used herein” (OTSUKA PHARMACEUTICAL CO., LTD., priority 2013, dated 2019) come the findings set out here.

Data set [1] in a line: 13C breath test after intravenous administration of 13C-labeled compounds to ZDF rats (Lean and Fatty), fasting or feeding (Experimental Example 2). As to conditions: for transition of Δ13C(‰), Lean rats versus Fatty rats: ZDF rats, fasting and feeding groups; for transition of Δ13C(‰), Lean rats versus Fatty rats / Δ13C(‰) in expired air, fasting state versus feeding state: intravenous; for Δ13C(‰) of Fatty versus Lean rats: rat, in vivo, iv. The text has this:
ZDF Fatty rat is an insulin-resistant test subject animal that has a low sensitivity to insulin, and develops a pathological condition similar to human adult type II diabetes and diabetes complication. In contrast, ZDF Lean rat is a healthy subject animal having normal blood glucose level and normal sensitivity to insulin. Lean and Fatty rats (A) were divided into a fasting group in which the rats were fasted from the previous day, and a feeding group. […] For (a) to (e), expired air was collected from rats (A), and for (f), expired air was collected and rats (B) (each group, n=3).
Expired air was obtained at time points (t minutes) from a time point before the administration of solutions (a) to (f) (0 minutes) to a time point 60 minutes after the administration, and Δ^13C(‰) was determined from ^13CO2 concentration in the expired air using an expired air analysis mass spectrometer (ABCA: product of SerCon).

For data set [2] the following is noted: fasted Zucker rats. Here is the method:
1-^13C-sodium palmitate was dissolved in hydrous ethanol at about 80° C. at a concentration of 500 μmol/mL.
Rats (male, Zucker rat) were used as experimental animals. The rats that were fasted from the previous day of the test were divided into two groups: oral administration group and intravenous administration group (each group, n=3), and the 1-^13C-sodium palmitate solution (20 μmol/2 mL) prepared in (1) was orally and intravenously administered at a dosage of 2 mL/kg. Expired air was collected at each time point (t minutes) from a time point before administration (0 minutes) to a time point 180 minutes after the administration, and Δ^13C(‰) was determined from the concentration of ^13CO2 in the expired air using an expired air analysis mass spectrometer (ABCA: product of SerCon).
The value of Δ^13C(‰) was determined by measuring a concentration ratio ^13CO2/^12CO2 in the expired air (δ^13C value) at each time point (t minutes) from a time point before the 1-^13C-sodium palmitate administration (0 minutes) to a time point after the administration, and calculating the Δ^13C(‰) value from the difference between the δ^13C value (δ^13Ct) at each point (t) and the δ^13C value before the administration (δ^13Co) (δ^13Ct-δ^13Co) (the same calculation is used in the Experimental Examples below).

The conditions of data set [3]: for Δ13C(‰) in expired air, fasting state versus feeding state: intravenous 2 ml/kg. Here is the method:
OLETF rats are type II diabetes test subject animal with obesity or/and fatty liver, and LETO rats serve as a control thereof (healthy subjects).
These rats were divided into a fasting group in which the rats were fasted from the previous day, and a feeding group. 1-^13C-sodium palmitate solution prepared in Experimental Example 2 was intravenously administered (2 ml/kg) to each group (each group, n=3). Expired air was collected at time points (t minutes) from a time point before the 1-^13C-sodium palmitate solution administration (0 minutes) to a time point 60 minutes after the administration, and Δ^13C(‰) was determined from the ^13CO2 concentration in the expired air using an expired air analysis mass spectrometer (ABCA: product of SerCon).

For data set [4] the following is noted: ZDF Fatty vs Lean and OLETF vs LETO, 11 weeks. The protocol: These rats were divided into a fasting group in which the rats were fasted from the previous day, and a feeding group. 1-^13C-sodium palmitate solution prepared in Experimental Example 2 was intravenously administered (2 ml/kg) to each group (each group, n=3).
Setting [5] is: ZDF Fatty rats (insulin-resistant).
[6] abbreviates: ZDF Lean rats (healthy subjects).

The structures appear in SMILES notation. Read-outs that look alike come from different tables or passages of the source. Some results are limits rather than exact numbers.

For `C[13C](=O)[O-].[Na+]` [1-^13C-sodium acetate, reference compound], the “transition of Δ13C(‰), Lean rats versus Fatty rats” value in data set [1] was “little difference between the results of Lean rats and the results of Fatty rats”.

Turning to `CCCCCCCCCCC[13C](=O)O` [1-^13C-lauric acid], the “Δ13C(‰) of Fatty versus Lean rats” value in data set [1] is listed as “higher than that of the healthy subjects (Lean)”.

As for `CCCCCCCCCCCCCCC[13C](=O)[O-].[Na+]` [1-^13C-sodium palmitate], the “excretion in expired air” value in data set [2] is on record as “excreted in expired air as ^13CO2”. For the same molecule, in data set [2] (intravenous administration, 2 mL/kg of 20 μmol/2 mL), the “time of Δ13C(‰) peak in expired air after administration” value was at most 10 min. The “transition of Δ13C(‰) in expired air” value in data set [2] (oral administration, 2 mL/kg of 20 μmol/2 mL, 0-180 minutes) is given as “little variation among respective measurement times”. The “Δ13C(‰) in expired air, fasting state versus feeding state” value in data set [3] (LETO rats (healthy subjects)) is recorded as “higher in the fasting (hunger) state than in the feeding state”; in data set [3] (OLETF rats (insulin-resistant, liver disease)), “higher in the fasting (hunger) state than in the feeding state”; in data set [1] (setting [5]), “higher in the fasting (hunger) state than in the feeding state”; in data set [1] (setting [6]) it was “higher in the fasting (hunger) state than in the feeding state”. Moreover, the “Δ13C(‰) of OLETF versus LETO rats” value in data set [3] (fasting group and feeding group, period until 15 minutes after intravenous administration) is reported as “higher than that of the healthy subjects (LETO)”. In data set [1], the “Δ13C(‰) of Fatty versus Lean rats” value is reported as “higher than that of the healthy subjects (Lean)”. The “transition of Δ13C(‰), insulin-nonresistant hyperinsulinemia test subject versus healthy subject” value in data set [4] (fasting state) was “little difference”. Further, in data set [4] (feeding state), the “Δ13C(‰) value, insulin-nonresistant hyperinsulinemia test subject versus healthy subject” value was “significantly lower than that of the healthy subject”.

Regarding `CCCCCCC[13C](=O)[O-].[Na+]` [1-^13C-sodium octanoate, reference compound], the “transition of Δ13C(‰), Lean rats versus Fatty rats” value in data set [1] is “little difference between the results of Lean rats and the results of Fatty rats”.

With `CCCCCCCC/C=C\CCCCCCC[13C](=O)O` [1-^13C-oleic acid], the “Δ13C(‰) in expired air, fasting state versus feeding state” value in data set [1] (setting [5]) and in data set [1] (setting [6]) was “higher in the fasting (hunger) state than in the feeding state” in each case. The “Δ13C(‰) of Fatty versus Lean rats” value in data set [1] is “higher than that of the healthy subjects (Lean)”.
